“Also recorded” adds a separate entry of the source.

The test system of assay [1] is Fc region of IgG. As to conditions: ref [17],[21] (b5); ref [15],[16],[17]; cited from earlier work. An excerpt:
(§1) Nowadays, numerous synthetic peptides are designed to specifically recognize and bind the conserved fragment crystallizable (Fc) region of IgG [18, 19], which is one of the most widely utilized types of antibodies in bioanalytical analysis. The Fc binding peptides made excellent exposure of the fragment antigen binding (Fab) region of IgG and thus maintained an easy approachability to the antigen-binding sites of the immobilized antibodies.

Assay [2] relates to IgG. As to conditions: ref [22]; cited from earlier work.
Excerpt: as §1

In assay [3] the target is heptapeptide HWRGWVC (HC7) coupled to poly(glycidyl methacrylate) nanospheres (PGMA-HC7). Put plainly: batch adsorption isotherm (Langmuir fit); bovine IgG 0.4-4 mg/mL added to PGMA-HC7 nanosphere suspension, physiological buffer, 37 °C, 5 min; supernatant IgG read at 280 nm after centrifugation, adsorbed amount by mass balance.

Regarding “HWRGWV [hexapeptide ligand that could specifically recognize the Fc region of the antibody]”, the “Fc selectivity relative to protein A / protein G” value in assay [1] was “comparable to protein A but not comparable to protein G; also recorded: comparable to protein A”.

Turning to “HWRGWVC [HC7, heptapeptide ligand HWRGWVC, 95% purity, synthesized by GL Biochem Ltd]”, in assay [2], the “affinity for IgG relative to HWRGWV” value is on record as “two orders of magnitude stronger”.

In turn, “bovine immunoglobulin G (IgG) (antibody)” came in with a Kd in assay [3] of 5.8 µM.

Usually Kd stands for the concentration at which binding is half-saturated. Read a low Kd as higher affinity.

The values above are taken from PMC11477792, “Fabrication of a Heptapeptide-Modified Poly(glycidyl Methac-Rylate) Nanosphere for Oriented Antibody Immobilization and Immunoassay” (Molecules, 2024).
